Data published in patent publication US11400096B2, “Small molecules for the treatment of autoimmune disorders” (Board of Regents, The University of Texas System, priority 2017, dated 2022).

Tested on: IL-17
Assay: Inhibition of IL-17 secretion by compounds
Type: cell-based

SMILES	IL-17 Secretion Inhibition
CCCn1c(=O)c2nc(-c3ccc(OCc4nc5ccccc5[nH]4)cc3)[nH]c2n(CCC)c1=O [Compound P2]	54.1%
CCCn1c(=O)c2nc(-c3ccc(OCc4nc5cc(C)ccc5[nH]4)cc3)[nH]c2n(CCC)c1=O [Compound P5]	64.3%
CCOc1nc2c(N)ncnc2n1CC1CC1 [Compound P8]	45.4%
